Reference: ChEMBL document CHEMBL1143637, “Solid-phase binding assays of peptides using EGFP-Src SH2 domain fusion protein and biotinylated Src SH2 domain” (Bioorg Med Chem Lett, 2005)

These compounds were tested against Proto-oncogene tyrosine-protein kinase Src (Homo sapiens, UniProt P12931) (assay: Inhibitory concentration against Src protein tyrosine kinase SH2 domain).
Chain of Proto-oncogene tyrosine-protein kinase Src (P12931 2-536 limits assumed): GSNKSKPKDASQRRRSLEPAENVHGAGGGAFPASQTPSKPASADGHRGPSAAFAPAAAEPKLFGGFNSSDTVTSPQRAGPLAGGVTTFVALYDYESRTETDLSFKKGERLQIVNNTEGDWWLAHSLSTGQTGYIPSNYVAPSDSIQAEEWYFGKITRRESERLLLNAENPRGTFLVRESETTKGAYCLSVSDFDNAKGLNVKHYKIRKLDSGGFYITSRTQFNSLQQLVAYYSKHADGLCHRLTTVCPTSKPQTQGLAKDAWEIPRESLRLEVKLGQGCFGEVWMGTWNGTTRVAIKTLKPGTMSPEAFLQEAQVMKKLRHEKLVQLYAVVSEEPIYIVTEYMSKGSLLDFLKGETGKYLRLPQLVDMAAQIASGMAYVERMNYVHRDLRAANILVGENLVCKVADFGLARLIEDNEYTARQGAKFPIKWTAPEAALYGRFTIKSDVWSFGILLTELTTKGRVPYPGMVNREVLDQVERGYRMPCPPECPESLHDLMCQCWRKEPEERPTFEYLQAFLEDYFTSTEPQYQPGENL

IC50 | SMILES
> 100 µM | CC[C@H](C)[C@H](N)C(=O)N[C@@H](CCC(=O)O)C(=O)N[C@@H](CCC(=O)O)C(=O)N[C@@H](Cc1ccc(O)cc1)C(=O)O
> 100 µM | CC[C@H](C)[C@H](N)C(=O)N[C@@H](CCC(=O)O)C(=O)N[C@@H](CCC(=O)O)C(=O)N[C@@H](Cc1ccccc1)C(=O)O
> 100 µM | CC[C@H](C)[C@H](N)C(=O)N[C@@H](CCC(=O)O)C(=O)N[C@@H](CCC(=O)O)C(=O)N[C@@H](Cc1ccc(OP(=O)(O)O)cc1)C(=O)O

The remaining lines, values behind:

SMILES | IC50
CC[C@H](C)[C@H](NC(=O)[C@H](CCC(=O)O)NC(=O)[C@H](CCC(=O)O)NC(=O)[C@@H](N)Cc1ccccc1)C(=O)O | > 100 µM
CC[C@H](C)[C@H](NC(=O)[C@H](CCC(=O)O)NC(=O)[C@H](CCC(=O)O)NC(=O)[C@@H](N)Cc1ccc(O)cc1)C(=O)O | > 100 µM
